Series [1] addresses T1, HCV polymerase (NS5B570n-Con1) (Hepatitis C virus genotype 1b, UniProt Q9WMX2).
T1 construct: contains a 21 amino acid deletion at the C-terminus relative to the full-length HCV polymerase; 6-histidine (N); made in house; host or cells: E. coli strain BL21(DE) pLysS, plasmid pET17b
The series is described as follows: HCV NS5B RNA polymerase activity assay. Type of series: biochemical, HCV Con1 strain. As for the experimental part:
The enzymatic activity of HCV polymerase (NS5B570n-Con1) was measured as the incorporation of radiolabeled nucleotide monophosphates into acid insoluble RNA products. Unincorporated radiolabeled substrate was removed by filtration and scintillant was added to the washed and dried filter plate containing radiolabeled RNA product. The amount of RNA product generated by NS5B570-Con1 at the end of the reaction was directly proportional to the amount of light emitted by the scintillant.
The N-terminal 6-histidine tagged HCV polymerase, derived from HCV Con1 strain, genotype 1b (NS5B570n-Con1) contains a 21 amino acid deletion at the C-terminus relative to the full-length HCV polymerase and was purified from E. coli strain BL21(DE) pLysS. The construct, containing the coding sequence of HCV NS5B Con1 (GenBank accession number AJ242654) was inserted into the plasmid construct pET17b, downstream of a T7 promoter expression cassette and transformed into E. coli. A single colony was grown overnight as a starter culture and later used inoculate 10 L of LB media supplemented with 100 μg/mL ampicillin at 37° C. Protein expression was induced by the addition of 0.25 mM isopropyl-β-D-thiogalactopyranoside (IPTG) when optical density at […] of the culture was between 0.6 and 0.8 and cells were harvested after 16 to 18 h at 30° C. NS5B570n-Con1 was purified to homogeneity using a three-step protocol including subsequent column chromatography on Ni-NTA, SP-Sepharose HP and Superdex 75 resins. […]
The amount of light emitted from the scintillant was converted to counts per minute (CPM) on a Topcount® plate reader (Perkin-Elmer, Energy Range: Low, Efficiency Mode: Normal, Count Time: 1 min, Background Subtract: none, Cross talk reduction: Off).
Data was analyzed in Excel® (Microsoft®) and ActivityBase® (Idbs®). […] All data was expressed as a percentage of the positive control. […]

Series [2] concerns HCV replicon cells (2209-23), genotype 1b replicon. The series is described as follows: HCV replicon assay (Renilla luciferase reporter). Type of series: cell-based, HCV genotype 1b. The note with it: Hepatitis C virus, 72 h; 2209-23 cells, three days incubation, luciferase activity. In general terms: Replicon systems follow genome replication, usually without infectious particles.

A further series in a line: in vitro. The note with it: human.

pIC50: −log10 of the molar value.

As usually defined, the pIC50 is the IC50 on a negative log10 scale, so that one unit is a factor of ten. A high value points to a small IC50. The melting point is the temperature, or range, at which the solid turns liquid.

With `COc1c(C(C)(C)C)cc(-c2ccc[nH]c2=O)c2ccc(-c3ccc(NS(C)(=O)=O)cc3)nc12` [Compound I-1, N-{4-[7-tert-Butyl-8-methoxy-5-(2-oxo-1,2-dihydro-pyridin-3-yl)-quinolin-2-yl]-phenyl}-methanesulfonamide], in series [1], the pIC50 was 9.22.
`COc1c(C(C)(C)C)cc(-c2ccc(C)[nH]c2=O)c2ccc(-c3ccc(NS(C)(=O)=O)cc3)nc12` [Compound I-2, N-{4-[7-tert-Butyl-8-methoxy-5-(6-methyl-2-oxo-1,2-dihydro-pyridin-3-yl)-quinolin-2-yl]-phenyl}-methanesulfonamide] showed a pIC50 in series [1] of 9.40.
Consider `COc1c(C(C)(C)C)cc(-n2ccc(=O)[nH]c2=O)c2ccc(-c3ccc(NS(C)(=O)=O)cc3)nc12` [Compound I-3, N-{4-[7-tert-Butyl-5-(2,4-dioxo-3,4-dihydro-2H-pyrimidin-1-yl)-8-methoxy-quinolin-2-yl]-phenyl}-methanesulfonamide], for which the melting point is 275 to 278 °C. The molecule also showed a negative-log IC50 (pIC50) in series [2] of 7.77. In the series “in vitro”, this molecule came in with a CC50 at 3 days of 44 µM. The pIC50 in series [1] was 9.70.

These data come from US8734777B2, “Heterocyclic antiviral compounds” (priority 2010, dated 2014).
